Assay results published in ChEMBL document CHEMBL3507680, “University of Dundee, Gates Library screen for HepG2 cell viability”.

Assay: Human HepG2 cell viability assay in 384 well format
Assay type: toxicity, cell-based
Parameters: dose 125 nL, time 70.5 hour; concentration not given beside the values
Conditions: HepG2 cells, read-out: Inhibition

| SMILES | cytotoxicity at 70.5 h [%] |
| --- | --- |
| COc1ccc(NC(=O)Cn2ccc3c(=O)n(C)ccc32)cc1OC | -3.38 |
| COCCNC(=O)Cn1ccc2sc(C)cc2c1=O | -5.23 |
| CNC(=O)c1ccccc1-c1ccc(S(C)(=O)=O)cc1 | -4.9 |
| Cc1ccc(Oc2ncccc2C(=O)N(C)CC2OCCO2)c(C)c1 | -4.31 |
| COc1ccc(C(=O)Nc2ccccc2C(C)C)c(OC)n1 | 5.28 |
| O=C(NCCC1=CCCCC1)c1ccc(-n2cccc2)nc1 | -3.84 |
| CC1CN(c2ncccc2C(=O)N[C@@H]2CCCc3ccccc32)CCN1 (stereo partly specified) | -4.37 |
| CCOCCNC(=O)c1cccnc1N1CCCC1c1ccccn1 (stereo unspecified) | -8.32 |
| CCCNc1ccc(C(=O)NCCc2ccc(Cl)cc2)cn1 | -5.63 |
| O=C(NC[C@@H]1CCCO1)c1cc(Br)cnc1N1CCCCC1 | -1.68 |
| COc1ccc2c(c1)C(=O)CC1(CCN(Cc3ccc(F)cc3)CC1)O2 | 21.7 |
| COc1ccc2c(c1)OC1(CCN(Cc3ccccc3C)CC1)CC2=O | -3.9 |
| COc1ccc2c(c1)OC1(CCN(Cc3cccc(C)c3)CC1)CC2=O | -2.19 |
| O=C(NC[C@@H]1CCCO1)c1cccnc1N1CCCC1c1ccccc1 (stereo partly specified) | -5.49 |
| CN(CCc1ccccc1)C(=O)c1cccnc1OCC(F)(F)F | 20 |
| O=C(c1cccnc1SCc1ccccc1)N1CC[C@@H](O)C1 | 29.6 |
| CCOCCNC(=O)c1cccnc1Sc1cc(OC)ccc1OC | 15.5 |
| COc1ccc(OC)c(Sc2ncccc2C(=O)NCC2CC2)c1 | 24.9 |
| COCCNC(=O)c1cccnc1Sc1cc(OC)ccc1OC | 11.2 |
| CCCSc1ncccc1C(=O)NCc1ccc(N(C)C)cc1 | 18.5 |
| CC1CCN(c2ncc(C#N)c(N)n2)CC1 | -3.5 |
| Cc1ccc(-c2nnc(CN3CCN(c4ccccn4)CC3)o2)cc1 | 3.67 |
| CC(=O)N1N=C(c2ccccc2)OC1C(=O)NCCOc1ccccc1 (stereo unspecified) | -3.08 |
| CC(=O)N1N=C(Cc2ccccc2)OC1C(=O)NCC(C)C (stereo unspecified) | -1.89 |

| SMILES | cytotoxicity at 70.5 h [%] |
| --- | --- |
| Cc1cc(Cl)ccc1-n1ncc(C(=O)NCC2COC(C)(C)O2)c1N (stereo unspecified) | 23.9 |
| CCOC(=O)C1CCN(C(=O)c2cnn(-c3ccccc3F)c2N)CC1 | -4.94 |
| Cc1ccc(C)c(-n2ncc(C(=O)N(C)CCc3ccccn3)c2N)c1 | 4.61 |
| CN1CCC(N(C)C(=O)c2cnn(-c3cc(F)ccc3F)c2N)CC1 | -0.483 |
| CCOC(=O)CNC(=O)C1OC(c2ccccc2)=NN1C(C)=O (stereo unspecified) | -6.97 |
| COc1ccc(NC(=O)C2OC(c3cccs3)=NN2C(C)=O)cc1OC (stereo unspecified) | 2.61 |
| CC(=O)N1N=C(c2ccco2)OC1C(=O)N(CC(C)C)CC(C)C (stereo unspecified) | -1.96 |
| CCN(CC)CCNC(=O)CCc1c(C)nn(-c2ccc(Cl)cc2)c1C | -7.15 |
| Cc1nc(-c2ccoc2)n(CC(=O)N(C)CC(C)C)c1C | -4.77 |
| Cc1cc(CN(C)CCC(O)c2ccccc2)no1 (stereo unspecified) | 1.83 |
| CN(C)c1cc(N2CCN(c3ccccn3)CC2)ncn1 | 22.1 |
| CC(=O)c1cc2ncc(C(=O)NC3CC3)cc2[nH]1 | 16 |
| CC(=O)c1cc2ncc(C(=O)NC3CCCC3)cc2[nH]1 | -3.81 |
| CCCNC(=O)c1cn(C(C)(C)C)c2ncccc12 | -1.86 |
| CCOCCCNC(=O)c1cn(C(C)(C)C)c2ncccc12 | 20.9 |
| CN(C)C(=O)c1cc(-c2ccncc2)[nH]n1 | -4.19 |
| CNC(=O)c1cc(-c2ccccc2OC)[nH]n1 | -5.34 |
| CCN(CC)CCNC(=O)CCc1c(C)nn(-c2ccccc2Cl)c1C | 16.4 |
| CC(C)(Oc1ccc(C(N)=O)cc1)C(=O)N(CCC#N)C1CC1 | -1.36 |
| CN(CCC#N)C(=O)C(C)(C)Oc1ccc(C(N)=O)cc1 | 20.4 |
| COc1ccc2[nH]c(C(=O)NCC3(N)CCCC3)cc2c1 | -7.33 |
| COc1ccc2c(c1)CN(CC1CC1)C(=O)CCN2CC(C)(C)O | 0.185 |
| CC(C)(C)CN1Cc2cc3c(cc2NCCC1=O)OCO3 | 23.7 |
| CCN1Cc2cc(OC)ccc2N(CC(C)(C)O)CCC1=O | -13 |

| SMILES | cytotoxicity at 70.5 h [%] |
| --- | --- |
| CC1(C)CNC(=O)CN(C(=O)COc2ccccc2)C1 | -14.2 |
| CCN1CC(COc2ccccc2)Oc2ncccc2S1(=O)=O (stereo unspecified) | -3.66 |
| CCN1CC(COc2ccc(OC)cc2)Oc2ccncc2S1(=O)=O (stereo unspecified) | -0.442 |
| CCN1CC(COC(C)(C)C)Oc2ccncc2S1(=O)=O (stereo unspecified) | -4.84 |
| CC(C)(C)OCC1CN(CC2CC2)S(=O)(=O)c2cnccc2O1 (stereo unspecified) | -4.79 |
| CCOC(=O)[C@H]1[C@@H](O)C(=O)N(C)C12CCN(C(=O)OC)CC2 | 7.43 |
| CCOC(=O)[C@@H]1[C@@H](O)C(=O)N(C)C12CCN(C(=O)OC)CC2 | -10.2 |
| O=C1c2cccnc2OC(CN2CCOCC2)CN1CC1CC1 (stereo unspecified) | -1.18 |
| O=C1c2cccnc2OC(CN2CCOCC2)CN1C1CCC1 (stereo unspecified) | -4.26 |
| COCCN1C[C@H]2CCN(C(C)=O)CC[C@H]2S1(=O)=O | 0.94 |
| CCn1cc(CN2CCCN(C(=O)CCn3cc(C)cn3)CC2)cn1 | -12.3 |
| O=C(c1ccc2[nH]nnc2c1)N1CCC(Nc2cccnn2)CC1 | 10.7 |
| CC(C)Cc1cc(NC(=O)c2ccccc2)n(C)n1 | -15.4 |
| O=C(NCC1COC2(CCOCC2)O1)c1csc(-c2cccc(Cl)c2)n1 (stereo unspecified) | -20.8 |
| CCn1cc(CN2CCCN(C(=O)CCc3nccs3)CC2)cn1 | -12.4 |
| COc1ccc(-c2nc(C(=O)NCC3CCOC3)cs2)cc1OC (stereo unspecified) | -7.66 |
| CCOc1ccc(-c2nc(C(=O)NCC3CCOC3)cs2)cc1 (stereo unspecified) | -7.97 |
| CCOc1ccc(Cl)c(C(=O)N2CCN(C(=O)OC)CC2)n1 | -14.3 |
| CCOc1ccc(Cl)c(C(=O)N2CCN(c3ncccn3)CC2)n1 | -12.1 |
| CC(=O)N1CCN(Cc2ccc(OCc3nccn3C)cc2)CC1 | -8.75 |
| COc1ccc(C(=O)Nc2cc(CC(C)C)nn2C)cc1 | 7.52 |
| COc1ccccc1C(=O)Nc1cc(CC(C)C)nn1C | -3.94 |
| CC(C)Cc1cc(NC(=O)c2ccccn2)n(C)n1 | -10.2 |
| CC(C)Cc1cc(NC(=O)c2ccncc2)n(C)n1 | -11.6 |

| SMILES | cytotoxicity at 70.5 h [%] |
| --- | --- |
| Cc1nc2cc(O)nn2c(C)c1CCC(=O)NCc1cc(Br)cs1 | -13.2 |
| O=C(c1ccc(-c2cnco2)cc1)N1CCC(Nc2cccnn2)CC1 | -4.21 |
| O=C(c1ccc2cc[nH]c2c1)N1CCC(Nc2cccnn2)CC1 | -4.46 |
| CNC(=O)c1ccc(C(=O)N2CCCC(n3ccnc3)C2)cn1 (stereo unspecified) | -15.9 |
| Cc1cnn(C2CCCN(C(=O)c3ccc(-n4cccn4)nc3)C2)c1 (stereo unspecified) | -11.3 |
| Cc1oc(C(=O)O)cc1S(=O)(=O)Nc1ccc(Cl)cc1F | -0.71 |
| Cc1oc(C(=O)O)cc1S(=O)(=O)Nc1ccc(Br)cc1Cl | -16.9 |
| Cc1oc(C(=O)O)cc1S(=O)(=O)Nc1cc(Br)ccc1F | -7.4 |
| COC(=O)c1cccn1C1CCN(C(=O)c2c(C)noc2C)CC1 | 3.97 |
| CC(C)N(C)CC(=O)N(C)C(c1cccc(F)c1)c1ccccn1 (stereo unspecified) | 40.9 |
| COc1c(C)cnc(CN2CCC(N(C)C(=O)C(C)OC)CC2)c1C (stereo unspecified) | 7.6 |
| CC(=O)N(C)C(c1cccc(F)c1)c1ccccn1 (stereo unspecified) | 8.62 |
| c1csc(N2CCCN(Cc3noc(C4CC4)n3)CC2)n1 | -11.8 |
| Cc1ccc(NC2CCN(C(=O)c3cnn(C(C)(C)C)c3)CC2)nn1 | -14.1 |
| CCOCCCC(=O)N(C)C(c1cccc(F)c1)c1ccccn1 (stereo unspecified) | -23.5 |
| COCCN1CCC(NCc2ccc(Cl)cc2)C1 (stereo unspecified) | -11.1 |
| Cc1ccc(NC2CCN(C(=O)c3ccnc(N(C)C)c3)CC2)nn1 | -22.6 |
| CN(C)S(=O)(=O)N(C)C(c1cccc(F)c1)c1ccccn1 (stereo unspecified) | -19.9 |
| Cc1nn(C)c(C)c1C1COCCN1C(=O)c1ccc(Cl)o1 (stereo unspecified) | 10.5 |
| Cc1ccc(NC2CCN(C(=O)c3ccncc3)CC2)nn1 | -12.4 |
| CC(C)(C)c1nc(CN2CCCN(Cc3cccs3)CC2)no1 | -18.1 |
| CCc1noc(CN2CCN(c3nccs3)CC2)n1 | 10.7 |
| COc1ncccc1NC(=O)N(Cc1ccccn1)C1CC1 | -17.7 |
| CCOCc1ccc(CNc2cncc(-n3cccn3)n2)cc1 | 8.54 |

| SMILES | cytotoxicity at 70.5 h [%] |
| --- | --- |
| COCc1ccc(CNc2cncc(-n3cccn3)n2)cc1 | -9.14 |
| Cc1cc(C(=O)N2CCCC2)ccc1NCC(=O)N1CCCCC1C (stereo unspecified) | 7.01 |
| NS(=O)(=O)Cc1ccc(CNc2cncc(-n3cccn3)n2)cc1 | -14 |
| O=C(CNc1cc(F)ccc1OCC1CCCO1)N1CCOCC1 (stereo unspecified) | -0.218 |
| Cc1cc(C(=O)N2CCCCC2C)ccc1NC(=O)N1CCOCC1 (stereo unspecified) | -6.59 |
| O=C(Nc1cc(F)ccc1OCC1CCCO1)NC1CC1 (stereo unspecified) | -8.4 |
| c1ccc(CCCN2CCN(c3ccc4nncn4n3)CC2)cc1 | 0.863 |
| CCNC(=O)N(C)C(c1ccccc1)c1ccccn1 (stereo unspecified) | -4.29 |
| Cn1ccc(C(=O)Nc2cc(F)ccc2OCC2CCCO2)cc1=O (stereo unspecified) | -8.3 |
| O=C(Nc1cc(F)ccc1OCC1CCCO1)N1CCSCC1 (stereo unspecified) | 0.0557 |
| NC(=O)c1cc(C2CCCN(C(=O)CCc3ccccn3)C2)n[nH]1 (stereo unspecified) | -3.73 |
| CCOCC(O)CN1CCN(C(=O)c2cc(C)ccc2OC)CC1 (stereo unspecified) | -5.99 |
| NCCc1cn(Cc2ccccn2)c2ccccc12 | -5.82 |
| NCCC(=O)Nc1ccc(-c2ccccc2)cc1 | -5.02 |
| NC(=O)N1CCc2cc(C(=O)O)c(-c3ccsc3)nc2CC1 | -6.4 |
| O=S(=O)(C1CC1)N1Cc2[nH]nc(COCC3CC3)c2C1 | -6.81 |
| CN(Cc1cccs1)C1CCC[C@@H]2CN(C(N)=O)C[C@H]12 (stereo partly specified) | -10.5 |
| CCN1CCC2(CC1)C(=O)N(c1ccc(C)nc1)CCN2CC(C)C | -3 |
| O=C(O)c1c(-c2ccoc2)ncc2c1CCN(C1CCOC1)C2 (stereo unspecified) | -2.3 |
| Cc1cc(CN2C[C@@H](C)[C@@]3(CCN(CC(=O)N(C)C)C3=O)C2)oc1C | -4.41 |
